Experimental findings from PMC7215599, “Synthesis, Antitumor Evaluation, Molecular Modeling and Quantitative Structure–Activity Relationship (QSAR) of Novel 2-[(4-Amino-6-N-substituted-1,3,5-triazin-2-yl)methylthio]-4-chloro-5-methyl-N-(1H-benzo[d]imidazol-2(3H)-ylidene)Benzenesulfonamides” (International Journal of Molecular Sciences, 2020) are described below.

As a reminder, the IC50 is the concentration at which inhibition is half-maximal. Low values mean greater potency, high ones weaker potency.

For experiment [1], the system named is HCT-116 (colon cancer) cell line. As to the kind of experiment: MTT cell viability assay, HCT-116. Type of experiment: cell-based, human. The settings on record: for IC50: MTT, 72 h, 1-100 µM, mean ± SD. As to the method: (§1) Compounds 6–49 were evaluated in vitro for their effects on the viability of the three human cancer cell lines: HCT-116 (colon cancer), MCF-7 (breast cancer) and HeLa (cervical cancer) as well as the non-cancerous keratinocyte cell line (HaCaT). The concentration required for 50% inhibition of cell viability IC50 was calculated and compared with the reference drug cisplatin, the results are shown in Table 1.
(§2) Cell lines: colon cancer (HCT-116), breast cancer (MCF-7), cervical cancer (HeLa), the human keratinocyte cell line (HaCaT); NT—not tested; IC50 was measured at concentrations 1, 10, 25, 50, and 100 µM. IC50 values are expressed as the mean ± SD of at last three independent experiments.
(§3) All chemicals, if not stated otherwise, were obtained from Sigma–Aldrich (St. Louis, MO, USA). The HCT-116 cell lines was purchased from ATCC (ATCC-No: CCL-247), while the MCF-7, HeLa and HaCaT cell lines were purchased from Cell Lines Services (Eppelheim, Germany). Cells were cultured in Dulbecco’s modified Eagle’s medium (DMEM) supplemented with 10% fetal bovine serum, 2 mM glutamine, 100 units/mL penicillin, and 100 µg/mL streptomycin. Cultures were maintained in a humidified atmosphere with 5% carbon dioxide at 37 °C in an incubator (Heraceus, HeraCell).
(§4) Cell viability was examined using the MTT (3-(4,5-dimethylthiazol-2-yl)-2,5-diphenyltetrazolium bromide) assay. Cells were seeded in 96-well plates at a density of 5 × 10^3 cells/well and treated for 72 h with the tested compounds in the concentration range of 1–100 µM (1, 10, 25, 50 and 100 µM). Then, MTT (0.5 mg/mL) was added to the medium and cells were further incubated for 2 h at 37 °C. In the next stage, cells were lysed with DMSO and the absorbance of the formazan solution was measured at 550 nm with a plate reader (1420 multilabel counter, Victor, Jügesheim, Germany). The experiment was performed in triplicate. Values are expressed as the mean ± SD of at least three independent experiments. Cisplatin was used as a positive control.
(In general: Formazan colour is commonly taken as a measure of viable cells.)

In experiment [2] the test system is MCF-7 (breast cancer) cell line. As to the kind of experiment: MTT cell viability assay, MCF-7. Type of experiment: cell-based, human. To be noted: MTT, 72 h, 1-100 µM, mean ± SD. As to the method: as §1, §2, §3, §4
For experiment [3], the system named is HeLa (cervical cancer) cell line. The experiment is described as follows: MTT cell viability assay, HeLa. The settings on record: for IC50: 72 h, MTT, 1-100 µM, mean ± SD. Type of experiment: cell-based, human. The protocol: as §1, §2, §3, §4
The subject of experiment [4] is HaCaT (non-cancerous keratinocyte cell line). The experiment is described as follows: MTT cell viability assay, HaCaT. Type of experiment: cell-based. To be noted: Homo sapiens, 72 h, 1-100 µM, mean ± SD, non-cancerous cells. The protocol: as §1, §2, §3, §4

Turning to `Cc1cc(S(=O)(=O)N=c2[nH]c3ccc(F)cc3[nH]2)c(SCc2nc(N)nc(Nc3cccc(Cl)c3)n2)cc1Cl` [Compound 35, 2-[{4-Amino-6-[(3-chlorophenyl)amino]-1,3,5-triazin-2-yl}methylthio]-4-chloro-N-(5-fluoro-1H-benzo[d]imidazol-2(3H)-ylidene)-5-methylbenzenesulfonamide], the IC50 in experiment [1] (Homo sapiens, HCT-116, 72 h) came to 37 ± 1 µM; in experiment [2] (Homo sapiens, MCF7, 72 h), 40 ± 1 µM; in experiment [3] (Homo sapiens, HeLa), 39 ± 1 µM; in experiment [4], 52 ± 2 µM.

For the compound `COc1ccccc1N1CCN(c2nc(N)nc(CSc3cc(Cl)c(C)cc3S(=O)(=O)N=c3[nH]c4ccccc4[nH]3)n2)CC1` [Compound 28, 2-[{4-Amino-6-[4-(2-methoxyphenyl)piperazin-1-yl]-1,3,5-triazin-2-yl}metylthio]-N-(1H-benzo[d]imidazol-2(3H)-ylidene)-4-chloro-5-methylbenzenesulfonamide], the IC50 in experiment [1] (Homo sapiens, HCT-116, 72 h) worked out at 16 ± 1 µM; in experiment [2] (Homo sapiens, MCF7, 72 h), 24 ± 1 µM; in experiment [3] (Homo sapiens, HeLa) it was 24 ± 1 µM; in experiment [4], 35 ± 1 µM.

Regarding `Cc1cc(S(=O)(=O)N=c2[nH]c3ccccc3[nH]2)c(SCc2nc(N)nc(N3CCN(c4ccc(C(F)(F)F)cc4)CC3)n2)cc1Cl` [Compound 22, 2-{[4-Amino-6-{4-[4-(trifluoromethyl)phenyl]piperazin-1-yl}-1,3,5-triazin-2-yl]methylthio}-N-(1H-benzo[d]imidazol-2(3H)-ylidene)-4-chloro-5-methylbenzenesulfonamide], the IC50 in experiment [1] (Homo sapiens, HCT-116, 72 h) is 7 to 11 µM; in experiment [1] it was 11 ± 0.5 µM; in experiment [2] (Homo sapiens, MCF7, 72 h), 15 to 24 µM; in experiment [2], 24 ± 1 µM; in experiment [3] (Homo sapiens, HeLa), 11 to 18 µM; in experiment [3], 11 ± 0.5 µM. For the same compound, the midpoint of inhibition in experiment [4], the IC50, lay at 34 ± 1 µM. Also, the “selectivity ratio HaCaT/HCT-116” value in experiment [1] (ratio of IC50 values) is on record as 3.1. In experiment [3] (ratio of IC50 values), the “selectivity ratio HaCaT/HeLa” value is 3.1.

Turning to `Cc1cc(S(=O)(=O)N=c2[nH]c3ccccc3[nH]2)c(SCc2nc(N)nc(N3CCN(c4ccc(Cl)c(Cl)c4)CC3)n2)cc1Cl` [Compound 25, 2-[{4-Amino-6-[4-(3,4-dichlorophenyl)piperazin-1-yl]-1,3,5-triazin-2-yl}metylthio]-N-(1H-benzo[d]imidazol-2(3H)-ylidene)-4-chloro-5-methylbenzenesulfonamide], the IC50 came out at 16 ± 1 µM in experiment [1] (Homo sapiens, HCT-116, 72 h); 46 ± 2 µM in experiment [2] (Homo sapiens, MCF7, 72 h); 28 ± 1 µM in experiment [3] (Homo sapiens, HeLa); 52 ± 2 µM in experiment [4].

On to `Cc1cc(S(=O)(=O)N=c2[nH]c3ccc(F)cc3[nH]2)c(SCc2nc(N)nc(N3CCN(c4ccc(F)cc4)CC3)n2)cc1Cl` [Compound 38, 2-[{4-Amino-6-[4-(4-fluorophenyl)piperazin-1-yl]-1,3,5-triazin-2-yl}metylthio]-4-chloro-N-(5-fluoro-1H-benzo[d]imidazol-2(3H)-ylidene)-5-methylbenzenesulfonamide], for which the IC50 in experiment [1] (Homo sapiens, HCT-116, 72 h) was 14 ± 1 µM; in experiment [2] (Homo sapiens, MCF7, 72 h), 24 ± 1 µM; in experiment [3] (Homo sapiens, HeLa), 18 ± 1 µM; in experiment [4] it was 38 ± 2 µM.

For `CC1=NN(c2nc(N)nc(CSc3cc(Cl)c(C)cc3S(=O)(=O)N=c3[nH]c4ccccc4[nH]3)n2)C(C)(C)C1` [Compound 8, 2-{[4-Amino-6-(3,5,5-trimethyl-4,5-dihydro-1H-pyrazol-1-yl)-1,3,5-triazin-2-yl]metylthio}-N-(1H-benzo[d]imidazol-2(3H)-ylidene)-4-chloro-5-methylbenzenesulfonamide], the IC50 in experiment [1] (Homo sapiens, HCT-116, 72 h) was 23 ± 1 µM; in experiment [2] (Homo sapiens, MCF7, 72 h) it was 34 ± 2 µM; in experiment [3] (Homo sapiens, HeLa), 31 ± 2 µM; in experiment [4] it was 43 ± 2 µM.

On to `Cc1cc(S(=O)(=O)N=c2[nH]c3ccccc3[nH]2)c(SCc2nc(N)nc(Nc3ccc(F)cc3)n2)cc1Cl` [Compound 12, 2-[{4-Amino-6-[(4-fluorophenyl)amino]-1,3,5-triazin-2-yl}metylthio]-N-(1H-benzo[d]imidazol-2(3H)-ylidene)-4-chloro-5-methylbenzenesulfonamide], for which the IC50 in experiment [1] (Homo sapiens, HCT-116, 72 h) was found to be 36 ± 1 µM; in experiment [2] (Homo sapiens, MCF7, 72 h) it was 35 ± 2 µM; in experiment [3] (Homo sapiens, HeLa) it was 36 ± 2 µM; in experiment [4], 43 ± 2 µM.

As to `Cc1cc(S(=O)(=O)N=c2[nH]c3ccccc3[nH]2)c(SCc2nc(N)nc(Nc3ccc(Cl)cc3)n2)cc1Cl` [Compound 13, 2-[{4-Amino-6-[(4-chlorophenyl)amino]-1,3,5-triazin-2-yl}metylthio]-N-(1H-benzo[d]imidazol-2(3H)-ylidene)-4-chloro-5-methylbenzenesulfonamide], the IC50 in experiment [1] (Homo sapiens, HCT-116, 72 h) is 32 ± 1 µM; in experiment [2] (Homo sapiens, MCF7, 72 h) it was 24 ± 1 µM; in experiment [3] (Homo sapiens, HeLa), 35 ± 1 µM; in experiment [4] it was 41 ± 2 µM.

Consider `Cc1cc(S(=O)(=O)N=c2[nH]c3ccc(Cl)cc3[nH]2)c(SCc2nc(N)nc(Nc3ccc(F)cc3)n2)cc1Cl` [Compound 43, 2-[{4-Amino-6-[(4-fluorophenyl)amino]-1,3,5-triazin-2-yl}methylthio]-4-chloro-N-(5-chloro-1H-benzo[d]imidazol-2(3H)-ylidene)-5-methylbenzenesulfonamide], for which the IC50 came out at 43 ± 1 µM in experiment [1] (Homo sapiens, HCT-116, 72 h); 44 ± 2 µM in experiment [2] (Homo sapiens, MCF7, 72 h); 45 ± 2 µM in experiment [3] (Homo sapiens, HeLa); 55 ± 2 µM in experiment [4].

Regarding `Cc1cc(S(=O)(=O)N=c2[nH]c3ccccc3[nH]2)c(SCc2nc(N)nc(Nc3ccccc3)n2)cc1Cl` [Compound 11, 2-{[4-Amino-6-(phenylamino)-1,3,5-triazin-2-yl]methylthio}-N-(1H-benzo[d]imidazol-2(3H)-ylidene)-4-chloro-5-methylbenzenesulfonamide], the IC50 was 37 ± 2 µM in experiment [1] (Homo sapiens, HCT-116, 72 h); 41 ± 1 µM in experiment [2] (Homo sapiens, MCF7, 72 h); 39 ± 1 µM in experiment [3] (Homo sapiens, HeLa); 58 ± 2 µM in experiment [4].

For the compound `Cc1cc(S(=O)(=O)N=c2[nH]c3ccc(Cl)cc3[nH]2)c(SCc2nc(N)nc(N3CCN(c4ccc(C(F)(F)F)cc4)CC3)n2)cc1Cl` [Compound 47, 2-{[4-Amino-6-{4-[4-(trifluoromethyl)phenyl]piperazin-1-yl}-1,3,5-triazin-2-yl]methylthio}-4-chloro-N-(5-chloro-1H-benzo[d]imidazol-2(3H)-ylidene)-5-methylbenzenesulfonamide], the IC50 in experiment [1] (Homo sapiens, HCT-116, 72 h) came to 21 ± 1 µM; in experiment [2] (Homo sapiens, MCF7, 72 h), 24 ± 1 µM; in experiment [3] (Homo sapiens, HeLa), 22 ± 1 µM; in experiment [4], 38 ± 1 µM.

As for `Cc1cc(S(=O)(=O)N=c2[nH]c3ccccc3[nH]2)c(SCc2nc(N)nc(N3CCN(Cc4ccccc4)CC3)n2)cc1Cl` [Compound 30, 2-{[4-Amino-6-(4-benzylpiperazin-1-yl)-1,3,5-triazin-2-yl]methylthio}-N-(1H-benzo[d]imidazol-2(3H)-ylidene)-4-chloro-5-methylbenzenesulfonamide], the IC50 came to 17 ± 0.5 µM in experiment [1] (Homo sapiens, HCT-116, 72 h); 24 ± 1 µM in experiment [2] (Homo sapiens, MCF7, 72 h); 18 ± 1 µM in experiment [3] (Homo sapiens, HeLa); 36 ± 2 µM in experiment [4].

On to `Cc1cc(S(=O)(=O)N=c2[nH]c3ccccc3[nH]2)c(SCc2nc(N)nc(N3CCN(c4cccc(Cl)c4)CC3)n2)cc1Cl` [Compound 24, 2-[{4-Amino-6-[4-(3-chlorophenyl)piperazin-1-yl]-1,3,5-triazin-2-yl}methylthio]-N-(1H-benzo[d]imidazol-2(3H)-ylidene)-4-chloro-5-methylbenzenesulfonamide], for which the IC50 was 17 ± 1 µM in experiment [1] (Homo sapiens, HCT-116, 72 h); 20 ± 0.6 µM in experiment [2] (Homo sapiens, MCF7, 72 h); 27 ± 0.5 µM in experiment [3] (Homo sapiens, HeLa); 42 ± 2 µM in experiment [4].

In the case of `Cc1cc(S(=O)(=O)N=c2[nH]c3ccccc3[nH]2)c(SCc2nc(N)nc(N3CCN(c4ccc([N+](=O)[O-])cc4)CC3)n2)cc1Cl` [Compound 29, 2-[{4-Amino-6-[4-(4-nitrophenyl)piperazin-1-yl]-1,3,5-triazin-2-yl}metylthio]-N-(1H-benzo[d]imidazol-2(3H)-ylidene)-4-chloro-5-methylbenzenesulfonamide], the IC50 in experiment [1] (Homo sapiens, HCT-116, 72 h) is above 100 µM; in experiment [1], 195 ± 4 µM; in experiment [2] (Homo sapiens, MCF7, 72 h), above 100 µM; in experiment [2], 134 ± 9 µM; in experiment [3] (Homo sapiens, HeLa) it was above 100 µM; in experiment [3], 56 ± 2 µM.

As to `Cc1cc(S(=O)(=O)N=c2[nH]c3ccccc3[nH]2)c(SCc2nc(N)nc(NCc3ccccc3)n2)cc1Cl` [Compound 15, 2-{[4-Amino-6-(benzylamino)-1,3,5-triazin-2-yl]metylthio}-N-(1H-benzo[d]imidazol-2(3H)-ylidene)-4-chloro-5-methylbenzenesulfonamide], the IC50 in experiment [1] (Homo sapiens, HCT-116, 72 h) is 22 ± 1 µM; in experiment [2] (Homo sapiens, MCF7, 72 h), 27 ± 1 µM; in experiment [3] (Homo sapiens, HeLa), above 100 µM; in experiment [3], 92 ± 2 µM.

Regarding `N.N.[Cl][Pt][Cl]` [cisplatin, reference compound], the values for the IC50 in experiment [1], in experiment [2] and in experiment [3] were 2.2 ± 0.1 µM, 3 ± 0.1 µM and 3.8 ± 0.2 µM, respectively.
